From patent publication US20210161997A1, “TREATING DISEASES VIA TARGETED MODULATION OF GENE SIGNALING NETWORKS” (Camp4 Therapeutics Corporation, priority 2018, published 2021)

Assays:
Assay type in all cases: cell-based
LECT2 = experiment: RNA-seq of LECT2 expression in compound-treated primary human hepatocytes
Experimental: (§1) Human hepatocytes were obtained from two donors from Massachusetts General Hospital, namely MGH54 and MGH63, and one donor from Lonza, namely HUM4111B. Cryopreserved hepatocytes were cultured in plating media for 16 hours, transferred to maintenance media for 4 hours. Cultured on serum-free media for 2 hours, then a compound was added. The hepatocytes were maintained on the serum-free media for 16 hours prior to gene expression analysis. Primary human hepatocytes were stored in the vapor phase of a liquid nitrogen freezer (about −130° C.).
(§2) Human hepatocytes cultured as described above were plated in 24-well format, adding 375,000 cells per well in a volume of 500 ul plating medium. Four hours before treatment, cells were washed with PBS and the medium was changed to either: fresh maintenance medium (complete) or modified maintenance medium.
(§3) Compound stocks were prepared at 1000× final concentration and added in a 2-step dilution to the medium to reduce risk of a compound precipitating out of solution when added to the cells, and to ensure reasonable pipetting volumes. One at a time, each compound was first diluted 10-fold in warm (about 37° C.) modified maintenance medium (initial dilution=ID), mixed by vortexing, and the ID was diluted 100-fold into the cell culture (e.g. 5.1 ul into 1 well of a 24-well plate containing 0.5 mL medium). The plate was mixed by carefully swirling and after all wells were treated and returned to the incubator overnight. If desired, separate plates/wells were treated with vehicle-only controls and/or positive controls. If using multi-well plates, controls were included on each plate. After about 18 hours, cells were harvested for further analysis, e.g., ChIP-seq, RNA-seq, ATAC-seq, etc.
(§4) This protocol is a modified version of the following protocols: MagMAX mirVana Total RNA Isolation Kit User Guide (Applied Biosystems #MAN0011131 Rev B.0), NEBNext Poly(A) mRNA Magnetic Isolation Module (E7490), and NEBNext Ultra Directional RNA Library Prep Kit for Illumina (E7420) (New England Biosystems #E74901).
(§5) The MagMAX mirVana kit instructions (the section titled “Isolate RNA from cells” on pages 14-17) were used for isolation of total RNA from cells in culture. Two hundred μl of Lysis Binding Mix was used per well of the multiwell plate containing adherent cells (usually a 24-well plate).
(§6) For mRNA isolation and library prep, the NEBNext Poly(A) mRNA Magnetic Isolation Module and Directional Prep kit was used. RNA isolated from cells above was quantified, and prepared in […] of each sample in 50 μl of nuclease-free water. This protocol may be run in microfuge tubes or in a 96-well plate.
(§7) Standard QC were applied (read integrity, mapping statistics, library complexity, fragment bias) to remove unsatisfactory samples. […] Log 2 fold change and significance values were computed using PME count data (with replicates explicitly modeled versus pan-experiment controls), median ratio normalized, using maximum likelihood estimation rather than maximum a posteriori, and disabling the use of Cook's distance cutoff when determining acceptable adjusted p-values. […] RNA-seq signals were also normalized by read depth and visualized using the UCSC browser.
(§8) To identify small molecules that modulate target gene expression, primary human hepatocytes were prepared as a monoculture, and at least one small molecule compound was applied to the cells.
(§9) RNA-seq was performed to determine the effects of the compounds on the expression of the target genes in hepatocytes. Fold change was calculated by dividing the level of expression in the cell system that had been perturbed by the level of expression in an unperturbed system. Changes in expression having a p-value ≤0.05 were considered significant.
(§10) Significance was defined as an FPKM ≥1, a log 2(fold change) ≥0.5, and a q-value of ≤0.05 for all targets except for CPOX.

SERPINC1 mRNA [1] = experiment: Quantitative PCR of SERPINC1 mRNA in mouse hepatocytes treated with compounds; conditions: for SERPINC1 mRNA, Mouse Heps, 1 uM: compound 1 uM; for SERPINC1 mRNA, Mouse Heps, 10 uM: compound 10 uM
Experimental: Samples were amplified using Taqman probes from ThermoFisher.
In some examples, RQ Min and RQ Max values are also reported. RQ Min and RQ Max are the minimum and maximum relative levels of gene expression in the test samples, respectively. They were calculated using the confidence level set in the analysis settings and the confidence level was set to one standard deviation (SD). These values were calculated using standard deviation as follows: […].
Compounds were tested in hepatocytes for upregulation of SERPINC1 mRNA for identification of potential treatments of SERPINC1/AT III deficiency.

SERPINC1 mRNA [2] = experiment: Quantitative PCR of SERPINC1 mRNA in primary human hepatocytes (Lonza Hu4282) treated with compounds; conditions: quantitative PCR; for SERPINC1 mRNA, Lonza Hu4282, 1 uM / SERPINC1 mRNA, Lonza Hu4282, 10 uM: primary human hepatocytes Lonza Hu4282
NOTCH2 = experiment: RNA-seq of NOTCH2 expression in compound-treated primary human hepatocytes; conditions: for NOTCH2 Fold Change (Log2): primary human hepatocytes
Experimental: (§11) Human hepatocytes were obtained from two donors from Massachusetts General Hospital, namely MGH54 and MGH63, and one donor from Lonza, namely HUM4111B. Cryopreserved hepatocytes were cultured in plating media for 16 hours, transferred to maintenance media for 4 hours. Cultured on serum-free media for 2 hours, then a compound was added. The hepatocytes were maintained on the serum-free media for 16 hours prior to gene expression analysis. Primary human hepatocytes were stored in the vapor phase of a liquid nitrogen freezer (about -130° C.). Human hepatocytes cultured as described above were plated in 24-well format, adding 375,000 cells per well in a volume of 500 ul plating medium. Four hours before treatment, cells were washed with PBS and the medium was changed to either: fresh maintenance medium (complete) or modified maintenance medium. Compound stocks were prepared at 1000× final concentration and added in a 2-step dilution to the medium to reduce risk of a compound precipitating out of solution when added to the cells, and to ensure reasonable pipetting volumes. […] The plate was mixed by carefully swirling and after all wells were treated and returned to the incubator overnight. If desired, separate plates/wells were treated with vehicle-only controls and/or positive controls. If using multi-well plates, controls were included on each plate. After about 18 hours, cells were harvested for further analysis, e.g., ChIP-seq, RNA-seq, ATAC-seq, etc. This protocol is a modified version of the following protocols: MagMAX mirVana Total RNA Isolation Kit User Guide (Applied Biosystems #MAN0011131 Rev B.0), NEBNext Poly(A) mRNA Magnetic Isolation Module ([…]), and NEBNext Ultra Directional RNA Library Prep Kit for Illumina ([…]) (New England Biosystems #E74901). […] Two hundred μl of Lysis Binding Mix was used per well of the multiwell plate containing adherent cells (usually a 24-well plate). For mRNA isolation and library prep, the NEBNext Poly(A) mRNA Magnetic Isolation Module and Directional Prep kit was used. RNA isolated from cells above was quantified, and prepared in […] of each sample in 50 μl of nuclease-free water. This protocol may be run in microfuge tubes or in a 96-well plate. […] Genomic alignments were converted to transcriptome alignments based on reference transcript annotations from the Human GENCODE Gene Set release 24 (Harrow et al., Genome Res. […] Standard QC were applied (read integrity, mapping statistics, library complexity, fragment bias) to remove unsatisfactory samples. Differential gene expression was computed using the negative binomial model implemented by DESeq2 version 1.16.1 (Love et al., Genome Biol. (2014) 15(12):550). […] RNA-seq signals were also normalized by read depth and visualized using the UCSC browser. To identify small molecules that modulate target gene expression, primary human hepatocytes were prepared as a monoculture, and at least one small molecule compound was applied to the cells. RNA-seq was performed to determine the effects of the compounds on the expression of the target genes in hepatocytes. Fold change was calculated by dividing the level of expression in the cell system that had been perturbed by the level of expression in an unperturbed system.

JAG1 = experiment: RNA-seq of JAG1 expression in compound-treated primary human hepatocytes; conditions: for JAG1 Fold Change (Log2): primary human hepatocytes; for Significant modulation of JAG1 (in words): summary of Table 6
Experimental: as §11

ANGPTL3 = experiment: RNA-seq of ANGPTL3 expression in compound-treated primary human hepatocytes; conditions: additional compounds (Table 13), linear fold change
Experimental: as §1, §2, §3, §4, §5, §6
All pass filter reads from each sample were mapped against the human genome (assembly GRCh38/GCA_000001405.15 “no alt” analysis set merged with hs38d1/GCA_000786075.2) using two pass mapping via STAR version 2.5.3a (alignment parameters alignIntronMin=20; alignIntronMax=1000000; outFilterMismatchNmax=999; outFilterMismatchNoverLmax=0.05; outFilterType=BySJout; outFilterMultimapNmax=20; alignSJoverhangMin=8; alignSJDBoverhangMin=1; alignMatesGapMax=1000000) (Dobin et al., Bioinformatics (2012) 29(1):15-21). Genomic alignments were converted to transcriptome alignments based on reference transcript annotations from the Human GENCODE Gene Set release 24 (Harrow et al., Genome Res. (2012) 22(9): 1760-1774). Using unique and multimapped transcriptomic alignments, gene-level abundance estimates were computed using RSEM version 1.3.0 (Li and Dewey, BMC Bioinformatics (2011) 12:323) in a strand-aware manner, and including confidence interval sampling calculations, to arrive at posterior mean estimates (PME) of abundances (counts and normalized FPKM—fragments per kilobase of exon per million mapped fragments) from the underlying Bayesian model. Standard QC were applied (read integrity, mapping statistics, library complexity, fragment bias) to remove unsatisfactory samples.

UGT1A1 = experiment: RNA-seq of UGT1A1 expression in compound-treated primary human hepatocytes
Experimental: as §1, §2, §3, §4, §5, §6, §7, §8, §9, §10

COc1cc2ncnc(Nc3ccc(Oc4ccccc4)cc3C)c2cc1OC.Cl [APS-2-79]
LECT2 Fold Change (Log2) (LECT2): −0.68 Log2

O=C(Nc1c[nH]nc1-c1nc2ccc(CN3CCOCC3)cc2[nH]1)NC1CC1 [AT9283]
SERPINC1 mRNA, Mouse Heps, 1 uM (SERPINC1 mRNA [1]): 1.11
SERPINC1 mRNA, Mouse Heps, 10 uM (SERPINC1 mRNA [1]): 1.81
SERPINC1 mRNA, Lonza Hu4282, 1 uM (SERPINC1 mRNA [2]; compound 1 uM): 0.91
SERPINC1 mRNA, Lonza Hu4282, 10 uM (SERPINC1 mRNA [2]; compound 10 uM): 2.2

Cc1cc(-c2nc(-c3ccc(OC(F)(F)F)cc3)no2)nn1Cc1ccnc(N2CCN(C3CC3)CC2)c1 [BAY 87-2243]
NOTCH2 Fold Change (Log2) (NOTCH2): 0 Log2
JAG1 Fold Change (Log2) (JAG1): 0.61 Log2
Significant modulation of JAG1 (in words) (JAG1): significantly modulate only JAG1

CCNC(=O)Nc1ccc(-c2nc(N3CCOC[C@@H]3C)c3c(n2)C(C)(C)S(=O)(=O)C3)cc1 [CZ415]
SERPINC1 mRNA, Mouse Heps, 1 uM (SERPINC1 mRNA [1]): 2.2
SERPINC1 mRNA, Mouse Heps, 10 uM (SERPINC1 mRNA [1]): 2.5
SERPINC1 mRNA, H8290, 1 uM (SERPINC1 mRNA [2]; hepatocytes H8290, compound 1 uM): 1.4
SERPINC1 mRNA, H8290, 10 uM (SERPINC1 mRNA [2]; hepatocytes H8290, compound 10 uM): 2.3
SERPINC1 mRNA, Lonza Hu4282, 1 uM (SERPINC1 mRNA [2]; compound 1 uM): 1.25
SERPINC1 mRNA, Lonza Hu4282, 10 uM (SERPINC1 mRNA [2]; compound 10 uM): 1.42

Cn1cc(C2=C(c3cn(C4CCN(Cc5ccccn5)CC4)c4ccccc34)C(=O)NC2=O)c2ccccc21 [Enzastaurin]
ANGPTL3-LINEAR FOLD CHANGE (ANGPTL3): 0.2176
NOTCH2 Fold Change (Log2) (NOTCH2): 0 Log2
JAG1 Fold Change (Log2) (JAG1): 1.03 Log2
Significant modulation of JAG1 (in words) (JAG1): significantly modulate only JAG1

c1cc(-c2cnn3cc(-c4ccc(N5CCNCC5)cc4)cnc23)c2cccnc2c1 [LDN-212854]
NOTCH2 Fold Change (Log2) (NOTCH2): 0 Log2
JAG1 Fold Change (Log2) (JAG1): 1.47 Log2
Significant modulation of JAG1 (in words) (JAG1): significantly modulate only JAG1

Cc1ccc(C(=O)Nc2ccc(Oc3cc4cnn(C)c4cc3-c3cn[nH]c3)c(F)c2)c(=O)n1-c1ccc(F)cc1 [Merestinib]
UGT1A1 Fold Change (Log2) (UGT1A1): 0.76 Log2
NOTCH2 Fold Change (Log2) (NOTCH2): 0.62 Log2
Significant modulation of NOTCH2 (in words) (NOTCH2; summary of Table 6): significantly modulate both JAG1 and NOTCH2
JAG1 Fold Change (Log2) (JAG1): 0.76 Log2
Significant modulation of JAG1 (in words) (JAG1): significantly modulate both JAG1 and NOTCH2
